The values below come from ChEMBL document CHEMBL4340544, “Discovery of 4,6-bis(benzyloxy)-3-phenylbenzofuran as a novel Pin1 inhibitor to suppress hepatocellular carcinoma via upregulating microRNA biogenesis” (Bioorg Med Chem, 2019).

For assay [1], the target named is T1, Peptidyl-prolyl cis-trans isomerase NIMA-interacting 1 (Homo sapiens, UniProt Q13526). Description: Inhibition of N-terminal 6-His tagged full length Pin1 (unknown origin) expressed in Escherichia coli at 10 uM using Suc-AEPF-pNA as substrate preincubated for 10 mins followed by substrate addition and measured for 180 secs by spectrophotometry relative to untreated control.
T1 sequence (Q13526 whole entry): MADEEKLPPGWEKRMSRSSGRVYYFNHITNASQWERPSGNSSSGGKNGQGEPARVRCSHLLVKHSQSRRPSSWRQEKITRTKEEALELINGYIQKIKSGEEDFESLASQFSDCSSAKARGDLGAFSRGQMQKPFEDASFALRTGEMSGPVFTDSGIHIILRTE

Assay [2] has as its target T1, Peptidyl-prolyl cis-trans isomerase NIMA-interacting 1. Description: Inhibition of N-terminal 6-His tagged full length Pin1 (unknown origin) expressed in Escherichia coli using Suc-AEPF-pNA as substrate preincubated for 10 mins followed by substrate addition and measured for 180 secs by spectrophotometry.
The target in assay [3] is Peptidyl-prolyl cis-trans isomerase NIMA-interacting 4 (Homo sapiens) (UniProt Q9Y237). Put plainly: Inhibition of recombinant N-terminal His6-tagged Pin4 (unknown origin) expressed in Escherichia coli at 1 to 50 uM using Suc-AEPF-pNA as substrate preincubated for 10 min followed by substrate addition measured for 180 secs.
Chain of Peptidyl-prolyl cis-trans isomerase NIMA-interacting 4 (Homo sapiens) (Q9Y237 whole entry): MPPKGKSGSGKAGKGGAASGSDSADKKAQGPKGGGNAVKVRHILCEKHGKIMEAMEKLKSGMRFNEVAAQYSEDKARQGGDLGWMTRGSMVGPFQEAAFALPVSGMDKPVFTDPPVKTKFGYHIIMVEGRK
Assay [4] concerns the target Peptidyl-prolyl cis-trans isomerase A (Homo sapiens) (UniProt P62937). Description: Inhibition of recombinant N-terminal His6-tagged Cyclophilin A (unknown origin) expressed in Escherichia coli at 1 to 50 uM using Suc-AEPF-pNA as substrate preincubated for 10 min followed by substrate addition measured for 180 secs.
Assay [5] addresses T1, Peptidyl-prolyl cis-trans isomerase NIMA-interacting 1. Put plainly: Inhibition of recombinant N-terminal His6-tagged Pin1 (unknown origin) expressed in Escherichia coli at 1 to 50 uM using Suc-AEPF-pNA as substrate preincubated for 10 min followed by substrate addition measured for 180 secs.
The test system of assay [6] is SK-HEP1. Description: Cytotoxicity against human SKHEP1 cells assessed as reduction in cell viability by MTT assay. Format: functional, cell-based. Background: Formazan colour is commonly taken as a measure of viable cells.
Another assay concerns SNU-423. Description: Cytotoxicity against human SNU423 cells assessed as reduction in cell viability by MTT assay. Format: functional, cell-based.
Assay [7] deals with SK-HEP1. Description: Antiproliferation activity against human SKHEP1 cells assessed as reduction in colony formation at 2.5 uM measured after 7 days by crystal violet staining based microscopic analysis. Format: functional, cell-based.
Assay [8] deals with T1, Peptidyl-prolyl cis-trans isomerase NIMA-interacting 1. Put plainly: Inhibition of Pin1 in human SKHEP1 cells assessed as increase in cytoplasm distribution of XPO5 at 2.5 uM incubated for 36 hrs by DAPI staining based confocal microscopic analysis. It counts as cell-based.
Assay [9] shares this target. Description: Inhibition of Pin1 in human SKHEP1 cells assessed as increase in miR-122 expression at 2.5 uM incubated for 36 hrs by quantitative RT PCR analysis. It counts as cell-based.
For assay [10] the target is unchanged. Description: Inhibition of Pin1 in human SKHEP1 cells assessed as increase in miR-29b expression at 2.5 uM incubated for 36 hrs by quantitative RT PCR analysis. Format: cell-based.
Assay [11] concerns the target Peptidyl-prolyl cis-trans isomerase FKBP1A (Homo sapiens) (UniProt P62942). Put plainly: Inhibition of recombinant N-terminal His6-tagged FKBP12 (unknown origin) expressed in Escherichia coli at 1 to 50 uM using Suc-AEPF-pNA as substrate preincubated for 10 min followed by substrate addition measured for 180 secs.

Each structure is given as a SMILES string. Activity calls are given as the source filed them. No cut-off for these calls is given here.

Chain of Peptidyl-prolyl cis-trans isomerase FKBP1A (Homo sapiens) (P62942 whole entry, looked up): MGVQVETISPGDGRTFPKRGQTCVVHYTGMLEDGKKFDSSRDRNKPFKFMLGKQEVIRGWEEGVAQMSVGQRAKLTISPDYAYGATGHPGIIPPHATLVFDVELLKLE
Chain of Peptidyl-prolyl cis-trans isomerase A (Homo sapiens) (P62937 whole entry, looked up): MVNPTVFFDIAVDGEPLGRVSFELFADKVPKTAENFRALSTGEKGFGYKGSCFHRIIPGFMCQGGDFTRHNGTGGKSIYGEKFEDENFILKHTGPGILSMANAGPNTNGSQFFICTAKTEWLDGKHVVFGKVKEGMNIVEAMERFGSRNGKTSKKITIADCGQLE

A word on the inhibition: it is the change of the read-out against control, counted positive when it falls. `Cc1ccc(-c2coc3c(C)c(C)ccc23)cc1` returned an inhibition in [1] of 64.6%.

`COc1ccc2occ(-c3ccc(Cl)cc3)c2c1` came in with an inhibition in assay [1] of 18%.

`Clc1ccc2oc(-c3ccccc3)c(-c3ccccc3)c2c1`: in assay [1], the inhibition was determined as 22.9%.

As to `CC(C)(C)c1ccc2occ(-c3ccc(Br)cc3)c2c1`, the inhibition in assay [1] stood at 28.9%.

The molecule `Clc1cccc2c(-c3ccccc3)c(-c3ccccc3)oc12` returned an inhibition in assay [1] of 13.6%.

For the molecule `Clc1ccc2occ(-c3ccccc3)c2c1`, the inhibition in [1] amounted to 19.2%.

As to `Oc1ccc2occ(-c3ccc(F)cc3)c2c1`, the inhibition in [1] amounted to 23.8%.

In assay [1], `c1ccc(-c2coc3ccccc23)cc1` registered an inhibition of 12.4%.

In [1], `COc1cc(OC)c2c(C)coc2c1` had an inhibition of 45.9%.

The molecule `COc1ccc(-c2coc3ccc([N+](=O)[O-])cc23)cc1` came in with an inhibition in [1] of 43.7%.

With `Cc1ccc(-c2coc3ccc(O)cc23)cc1C`, the inhibition in assay [1] was found to be 27.8%.

In assay [1], `CC(C)(C)c1ccc2c(-c3ccc4c(c3)OCO4)coc2c1` registered an inhibition of 63.7%.

Molecule `COc1ccc2oc(-c3ccccc3)c(-c3ccccc3)c2c1` came in with an inhibition in [1] of 25.7%.

`c1ccc(-c2oc3ccccc3c2-c2ccccc2)cc1`: the inhibition in [1] came to 15.8%.

Consider `COc1cccc(-c2coc3ccccc23)n1`, for which the inhibition in assay [1] came to 34.8%.

Regarding `COc1ccc2c(C)coc2c1`, the inhibition in assay [1] turned out to be 65.1%.

For the molecule `Cc1cccc2c(-c3ccccc3)c(-c3ccccc3)oc12`, in [1], the inhibition amounted to 19.6%.

A word on the IC50: it is the concentration that gives 50% inhibition. With `COc1ccc2c(-c3ccccc3)coc2c1`, in assay [2], 2230 nM corresponded to half-maximal inhibition (IC50).

With `COc1ccc(-c2coc3ccc(C#N)cc23)cc1`, in [1], the inhibition turned out to be 38.2%.

The molecule `N#Cc1ccc2occ(-c3ccc4c(c3)OCO4)c2c1` displayed an inhibition in assay [1] of 46.9%.

In turn, `Oc1ccc2occ(-c3ccccc3)c2c1` registered an inhibition in [1] of 28%.

On to `COc1cccc2c(-c3ccccc3)coc12`, for which the inhibition in [1] was determined as 22.2%.

`COc1ccc2occ(-c3ccc(C)cc3)c2c1` returned an inhibition in assay [1] of 29.8%.

`c1ccc2c(-c3ccsc3)coc2c1` yielded an inhibition in [1] of 43.5%.

In assay [1], `Cc1ccc(-c2coc3ccc([N+](=O)[O-])cc23)cc1` displayed an inhibition of 32.6%.

`COc1cccc2occ(-c3ccccc3)c12` yielded an inhibition in assay [1] of 59.5%.

Regarding `O=[N+]([O-])c1ccc2occ(-c3ccc4c(c3)OCO4)c2c1`, in [1], the inhibition turned out to be 23.4%.

`O=[N+]([O-])c1ccc2occ(-c3cccc4ccccc34)c2c1` gave an inhibition in assay [1] of 14%.

In assay [1], `Clc1ccc(-c2coc3ccccc23)cc1` returned an inhibition of 18.3%.

Turning to `Cc1ccc2oc(-c3ccccc3)c(-c3ccccc3)c2c1`, the inhibition in assay [1] worked out at 13.9%.

Take `CC(C)(C)c1ccc2occ(-c3ccccc3)c2c1`: in assay [1], the inhibition was 11%.

For the molecule `Cc1ccc(-c2coc3ccc(O)cc23)cc1`, the inhibition in assay [1] was determined as 33.1%.

In turn, `O=C1C=CC(=O)c2c(O)cccc21` came in with an inhibition in assay [1] of 52.6%.

As to `c1coc(-c2coc3ccccc23)c1`, the inhibition in assay [1] was 22.2%.

In assay [1], `COc1ccc(-c2coc3ccccc23)cc1` displayed an inhibition of 54.8%.

Molecule `Oc1ccc2occ(-c3ccc(Cl)cc3)c2c1` came in with an inhibition in assay [1] of 13.8%.

Molecule `COc1ccc2occ(-c3ccc(C)c(C)c3)c2c1` showed an inhibition in assay [1] of 23.7%.

For `COc1ccc2occ(-c3ccc(F)cc3)c2c1`, in assay [1], the inhibition worked out at 30.7%.

For `Clc1cc(Cl)c2occ(-c3ccccc3)c2c1`, the inhibition in assay [1] was 16.2%.

Take `Cc1ccc(-c2coc3c(Cl)cc([N+](=O)[O-])cc23)cc1`: in assay [1], the inhibition was determined as 30.3%.

As for `c1ccc(COc2cc(OCc3ccccc3)c3c(-c4ccccc4)coc3c2)cc1`, the IC50 in assay [2] worked out at 874 nM; in the assay with SK-HEP1 [6] it was 1140 nM; in the assay on SNU-423 it was 2730 nM. In assay [1], the inhibition was 75.4%. For the same molecule, the inhibition result in [3], in assay [4] and in [11] was “inactive” in each case. Also, the inhibition result in [5], in assay [8], in assay [9] and in assay [10] was “Active” throughout. Besides, the result in the assay with SK-HEP1 [7] was Active.

As to `Brc1ccc2occ(-c3ccccc3)c2c1`, the inhibition in assay [1] was found to be 19.5%.

`COc1cc(OC)c2c(-c3ccccc3)coc2c1`: the inhibition in [1] turned out to be 69.6%.

In assay [1], `COc1ccc2occ(-c3ccccc3)c2c1` gave an inhibition of 27%.
